Laboratory results as given in patent US20190106688A1, “FUSION PROTEIN FOR CRISPR/CAS SYSTEM AND COMPLEX COMPRISING THE SAME AND USES THEREOF” (KOREA INSTITUTE OF SCIENCE AND TECHNOLOGY, priority 2017, published 2019).

Tested on: A549 cells and A549 xenografts
Test: Immunoblot analysis of EGFR downstream signaling (ERK, AKT) in A549 cells and A549 xenografts
Type: cell-based
Conditions: in vitro and in vivo samples
Description: The treated cells or tumor tissues were lysed using an RIPA lysis buffer (Sigma) unsupplemented or supplemented with a phosphatase inhibitor+a protease inhibitor (Thermo Scientific). A total of 50 μg of protein was analyzed by immunoblotting via incubation at 4° C. overnight with Sprimary antibody specific to KRAS (Santa Cruz, 1:200 dilution), p-ERK (cell signal, 1:1000 dilution), ERK (Cell Signaling, 1:1000 dilution), and β-Actin (Abcam, 1:10000 dilution) and then incubation with secondary antibodies conjugated with horseradish peroxidase for 2 hours at room temperature. The proteins were visualized by chemicalluminescence using a Western ECL substrate (Bio-Rad) and luminescence images were analyzed by a LAS-3000 (Fujifilm). Band intensities were quantified using ImageJ software.
FIG. 6D illustrates immunoblot analysis of EGFR downstream signaling pathways in A549 cells and A549 xenografts.

Cn1cnc2c(F)c(Nc3ccc(Br)cc3Cl)c(C(=O)NOCCO)cc21 [AZD6244]
activation (phosphorylation) of ERK: inhibited only activation of ERK
